Reference: PubChem BioAssay (NCI)
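1) Cells in 96-well plates. 2) Compound, 48 h, 5 concentrations. 3) Linear interpolation between surrounding doses. 4) Unreached endpoint = highest concentration. GI50 is the concentration that inhibits growth by half. TGI denotes the concentration required for complete inhibition of growth.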

What was measured:
Test in all cases: NCI-60 cell line screen, 48 h
[1] = test system: CAKI-1 renal
[2] = test system: T-47D breast
[3] = test system: HCT-15 colon
[4] = test system: MALME-3M melanoma
[5] = test system: SR leukemia
[6] = test system: NCI-H226 lung
[7] = test system: SK-MEL-5 melanoma
[8] = test system: CCRF-CEM leukemia
[9] = test system: DU-145 prostate
[10] = test system: MDA-MB-435
[11] = test system: NCI-H23 lung
[12] = test system: OVCAR-8 ovarian
[13] = test system: HCC-2998 colon
[14] = test system: TK-10 renal
[15] = test system: UACC-257 melanoma
[16] = test system: UO-31 renal
[17] = test system: MDA-MB-231 breast
[18] = test system: NCI/ADR-RES ovarian
[19] = test system: SF-295 CNS
[20] = test system: SN12C renal
[21] = test system: SNB-19 CNS
[22] = test system: KM12 colon
[23] = test system: SNB-75 CNS
[24] = test system: HOP-62 NSCLC
[25] = test system: HCT-116 colon
[26] = test system: A549 NSCLC
[27] = test system: U251 CNS
[28] = test system: RXF 393 renal
[29] = test system: OVCAR-3 ovarian
[30] = test system: OVCAR-5 ovarian
[31] = test system: BT-549 breast
[32] = test system: RPMI-8226 leukemia
[33] = test system: PC-3 prostate
[34] = test system: SF-268 CNS
[35] = test system: 786-0 renal
[36] = test system: SK-OV-3 ovarian
[37] = test system: LOX IMVI melanoma
[38] = test system: HT29 colon
[39] = test system: A498 renal
[40] = test system: SK-MEL-2 melanoma
[41] = test system: SF-539 CNS
[42] = test system: UACC-62 melanoma
[43] = test system: SK-MEL-28 melanoma
[44] = test system: MCF7 breast
[45] = test system: SW-620 colon
[46] = test system: K-562 leukemia
[47] = test system: OVCAR-4 ovarian
[48] = test system: EKVX NSCLC
[49] = test system: ACHN renal
[50] = test system: HOP-92 NSCLC
[51] = test system: COLO 205 colon
[52] = test system: NCI-H460 lung
[53] = test system: MOLT-4 leukemia
[54] = test system: HL-60(TB) leukemia

With `Cn1c(-c2c(N)n(Cc3ccc(C(F)(F)F)cc3)c3nc(C#N)c(C#N)nc23)nc2ccccc21` the GI50 [1] was 17.4 µM, the TGI [1] was 57.3 µM and the GI50 [2] was 8.76 µM. For the same molecule, the TGI [2] was 74.7 µM, the GI50 [3] was 20.3 µM and the TGI [3] was > 100 µM. The GI50 [4] was 21.9 µM, the TGI [4] was 63.6 µM and the GI50 [5] was 20.6 µM. For the same molecule, the TGI [5] was 47.3 µM, the GI50 [6] was 17.2 µM and the TGI [6] was 36.2 µM. For the same molecule, the GI50 [7] was 16.3 µM, the TGI [7] was 31.5 µM and the GI50 [8] was 17.2 µM. The TGI [8] was 45.7 µM, the GI50 [9] was 25.3 µM and the TGI [9] was 65.8 µM. The GI50 [10] was 20.7 µM, the TGI [10] was 49.2 µM and the GI50 [11] was 24.4 µM. The TGI [11] was 70.2 µM, the GI50 [12] was 32 µM and the TGI [12] was 97.5 µM. It also gave a GI50 [13] of 24.5 µM, a TGI [13] of 56.4 µM and a GI50 [14] of 23.6 µM. For the same molecule, the TGI [14] was 80.6 µM, the GI50 [15] was 28.1 µM and the TGI [15] was 65.2 µM. The GI50 [16] was 21.7 µM, the TGI [16] was > 100 µM and the GI50 [17] was 14.8 µM. For the same molecule, the TGI [17] was 31.8 µM, the GI50 [18] was 30.2 µM and the TGI [18] was > 100 µM. The GI50 [19] was 11.2 µM, the TGI [19] was 29.8 µM and the GI50 [20] was 24.2 µM. It also gave a TGI [20] of 71.6 µM, a GI50 [21] of 11.7 µM and a TGI [21] of 73 µM. It also gave a GI50 [22] of 18.2 µM, a TGI [22] of 38.2 µM and a GI50 [23] of 17 µM. For the same molecule, the TGI [23] was 78.3 µM, the GI50 [24] was 14.8 µM and the TGI [24] was 33.2 µM. It also gave a GI50 [25] of 13.1 µM, a TGI [25] of 26.9 µM and a GI50 [26] of 32.8 µM. For the same molecule, the TGI [26] was > 100 µM, the GI50 [27] was 12.5 µM and the TGI [27] was 30.4 µM. For the same molecule, the GI50 [28] was 11.3 µM, the TGI [28] was 25.3 µM and the GI50 [29] was 6.44 µM. For the same molecule, the TGI [29] was 22.3 µM, the GI50 [30] was 19.8 µM and the TGI [30] was 44.2 µM. The GI50 [31] was 20.8 µM, the TGI [31] was 86.6 µM and the GI50 [32] was 5.69 µM. For the same molecule, the TGI [32] was 26.4 µM, the GI50 [33] was 6.95 µM and the TGI [33] was 69.6 µM. The GI50 [34] was 19.7 µM, the TGI [34] was 56.5 µM and the GI50 [35] was 18.3 µM. For the same molecule, the TGI [35] was 40.2 µM, the GI50 [36] was 34.7 µM and the TGI [36] was > 100 µM. For the same molecule, the GI50 [37] was 14.8 µM, the TGI [37] was 30.2 µM and the GI50 [38] was 24.4 µM. For the same molecule, the TGI [38] was 73.1 µM, the GI50 [39] was 5.92 µM and the TGI [39] was 25.3 µM. It also gave a GI50 [40] of 19.5 µM, a TGI [40] of 60.3 µM and a GI50 [41] of 19.9 µM. For the same molecule, the TGI [41] was 42.8 µM, the GI50 [42] was 11.2 µM and the TGI [42] was 25.5 µM. It also gave a GI50 [43] of 14.3 µM, a TGI [43] of 29.1 µM and a GI50 [44] of 16 µM. For the same molecule, the TGI [44] was 57.4 µM, the GI50 [45] was 19.5 µM and the TGI [45] was 42.2 µM. It also gave a GI50 [46] of 13.4 µM, a TGI [46] of 44.6 µM and a GI50 [47] of 32.7 µM. The TGI [47] was > 100 µM, the GI50 [48] was 13.8 µM and the TGI [48] was > 100 µM. For the same molecule, the GI50 [49] was 22 µM, the TGI [49] was > 100 µM and the GI50 [50] was 6.71 µM. For the same molecule, the TGI [50] was 38.3 µM, the GI50 [51] was 18.3 µM and the TGI [51] was 34.1 µM. The GI50 [52] was 14.5 µM, the TGI [52] was 40.3 µM and the GI50 [53] was 12.8 µM. For the same molecule, the TGI [53] was 40.5 µM, the GI50 [54] was 16.7 µM and the TGI [54] was 39.3 µM.
